Values belong to the compound of their own block, whether it stands above or below them. Active and inactive are the calls of the source. No cut-off for these calls is given here.
Key:
[1] = molecular target: T1, Protein cereblon/Cyclin-dependent kinase 9 (Homo sapiens, UniProt P50750+Q96SW2); test: Protac activity at CRBN/CDK9 in human MV4-11 cells assessed as CDK9 degradation at 1 uM measured after 6 hrs by Western blot analysis; type: cell-based
Target sequence in this assay (P50750 whole entry, looked up): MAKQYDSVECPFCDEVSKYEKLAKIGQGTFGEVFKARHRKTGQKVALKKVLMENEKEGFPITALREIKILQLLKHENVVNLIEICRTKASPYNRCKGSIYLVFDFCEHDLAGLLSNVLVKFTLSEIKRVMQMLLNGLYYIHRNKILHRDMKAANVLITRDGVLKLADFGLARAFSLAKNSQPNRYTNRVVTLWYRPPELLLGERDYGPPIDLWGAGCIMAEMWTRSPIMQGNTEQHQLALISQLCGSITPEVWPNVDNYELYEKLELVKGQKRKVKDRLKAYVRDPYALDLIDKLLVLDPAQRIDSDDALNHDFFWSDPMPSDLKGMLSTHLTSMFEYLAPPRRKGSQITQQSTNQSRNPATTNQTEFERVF
Target sequence in this assay (Q96SW2 whole entry, looked up): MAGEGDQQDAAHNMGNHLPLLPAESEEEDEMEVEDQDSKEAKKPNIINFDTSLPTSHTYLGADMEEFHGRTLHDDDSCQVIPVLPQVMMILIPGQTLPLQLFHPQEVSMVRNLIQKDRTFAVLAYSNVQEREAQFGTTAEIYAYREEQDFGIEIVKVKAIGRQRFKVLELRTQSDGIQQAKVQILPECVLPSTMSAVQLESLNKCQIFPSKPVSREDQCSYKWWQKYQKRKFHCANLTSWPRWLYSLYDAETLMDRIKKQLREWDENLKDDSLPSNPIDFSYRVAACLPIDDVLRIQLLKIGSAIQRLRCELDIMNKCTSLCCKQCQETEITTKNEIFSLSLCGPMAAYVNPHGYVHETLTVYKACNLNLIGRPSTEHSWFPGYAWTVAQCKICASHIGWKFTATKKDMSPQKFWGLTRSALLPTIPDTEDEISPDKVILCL

[2] = system: MOLM-13; test: Anticancer activity against human MOLM-13 cells assessed as cell growth inhibition measured after 48 hrs by MTS assay; type: functional, cell-based; settings: MOLM-13, 48 h
[3] = system: MV4-11; test: Anticancer activity against human MV4-11 cells assessed as cell growth inhibition for 6 hrs followed by compound washout measured after 24 hrs by Annexin V/Propidium iodide staining based flow cytometric analysis; type: functional
[4] = molecular target: T1, Protein cereblon/Cyclin-dependent kinase 9; test: Protac activity at CRBN/CDK9 in human MV4-11 cells assessed as CDK9 degradation at 0.01 to 5 uM measured after 6 hrs by Western blot analysis; type: cell-based; settings: dose 0.01-5 µM
Target sequence in this assay (P50750 whole entry, looked up): as the sequence (P50750 whole entry, looked up) above
Target sequence in this assay (Q96SW2 whole entry, looked up): as the sequence (Q96SW2 whole entry, looked up) above

[5] = molecular target: T1, Protein cereblon/Cyclin-dependent kinase 9; test: Protac activity at CRBN/CDK9 in human MV4-11 cells assessed as CDK9 degradation at 5 uM measured after 6 hrs by Western blot analysis; type: cell-based
Target sequence in this assay (P50750 whole entry, looked up): as the sequence (P50750 whole entry, looked up) above
Target sequence in this assay (Q96SW2 whole entry, looked up): as the sequence (Q96SW2 whole entry, looked up) above

[6] = system: MOLM-13; test: Effect on ikaros expression in human MOLM-13 cells upto 5 uM measured after 6 hrs by Western blot analysis; type: functional, cell-based
[7] = system: MOLM-13; test: Effect on aiolos expression in human MOLM-13 cells upto 5 uM measured after 6 hrs by Western blot analysis; type: functional, cell-based
[8] = molecular target: Cyclin-dependent kinase 9 (Homo sapiens) (UniProt P50750); test: Induction of CDK9 degradation in human MOLM-13 cells assessed as fold change measured after 6 hrs by proteomics analysis; type: cell-based
Chain of Cyclin-dependent kinase 9 (Homo sapiens) (P50750 whole entry): as the sequence (P50750 whole entry, looked up) above

[9] = molecular target: T1, Protein cereblon/Cyclin-dependent kinase 9; test: Protac activity at CRBN/CDK9 in human MV4-11 cells assessed as protein degradation at 1 uM measured after 6 hrs in presence of pomalidomide by Western blot analysis; type: cell-based
Target sequence in this assay (P50750 whole entry, looked up): as above
Target sequence in this assay (Q96SW2 whole entry, looked up): as the sequence (Q96SW2 whole entry, looked up) above

[10] = molecular target: T1, Protein cereblon/Cyclin-dependent kinase 9; test: Protac activity at CRBN/CDK9 in human MV4-11 cells assessed as protein degradation at 1 uM measured after 6 hrs in presence of […] by Western blot analysis; type: cell-based
Target sequence in this assay (P50750 whole entry, looked up): as the sequence (P50750 whole entry, looked up) above
Target sequence in this assay (Q96SW2 whole entry, looked up): as the sequence (Q96SW2 whole entry, looked up) above

[11] = molecular target: T1, Protein cereblon/Cyclin-dependent kinase 9; test: Protac activity at CRBN/CDK9 in human MV4-11 cells assessed as reduction in MCL-1 level at 1 uM measured after 6 hrs by Western blot analysis; type: cell-based
Target sequence in this assay (P50750 whole entry, looked up): as the sequence (P50750 whole entry, looked up) above
Target sequence in this assay (Q96SW2 whole entry, looked up): as the sequence (Q96SW2 whole entry, looked up) above

[12] = molecular target: T1, Protein cereblon/Cyclin-dependent kinase 9; test: Protac activity at CRBN/CDK9 isoform 55 in human MOLM-13 cells assessed assessed as protein degradation measured after 6 hrs by Western blot analysis; type: cell-based
Target sequence in this assay (P50750 whole entry): as the sequence (P50750 whole entry, looked up) above
Target sequence in this assay (Q96SW2 whole entry): as the sequence (Q96SW2 whole entry, looked up) above

[13] = molecular target: T1, Protein cereblon/Cyclin-dependent kinase 9; test: Protac activity at CRBN/CDK9 in human MV4-11 cells assessed as protein degradation at 1 uM treated for 6 hrs followed by compound washout measured after 24 hrs by Western blot analysis; type: cell-based
[14] = system: B-lymphocyte; test: Induction of CDK2 degradation in B-lymphocyte (unknown origin); type: cell-based
[15] = system: T-lymphocyte; test: Induction of CDK2 degradation in T-lymphocyte (unknown origin); type: cell-based
[16] = molecular target: T1, Protein cereblon/Cyclin-dependent kinase 9; test: Protac activity at CRBN/CDK9 in human MV4-11 cells assessed as protein degradation at 1 uM treated for 6 hrs followed by compound washout measured after 48 hrs by Western blot analysis; type: cell-based
[17] = molecular target: T1, Protein cereblon/Cyclin-dependent kinase 9; test: Protac activity at CRBN/CDK9 in human MV4-11 cells assessed as protein degradation at 1 uM measured after 6 hrs in presence of carfilzomib by Western blot analysis; type: cell-based
[18] = molecular target: T1, Protein cereblon/Cyclin-dependent kinase 9; test: Protac activity at CRBN/CDK9 isoform 42 in human MOLM-13 cells assessed assessed as protein degradation measured after 6 hrs by Western blot analysis; type: cell-based
Target sequence in this assay (P50750 whole entry): as the sequence (P50750 whole entry, looked up) above
Target sequence in this assay (Q96SW2 whole entry): as the sequence (Q96SW2 whole entry, looked up) above

[19] = molecular target: T1, Protein cereblon/Cyclin-dependent kinase 9; test: Protac activity at CRBN/CDK9 in human MV4-11 cells assessed as protein degradation at 1 uM measured after 6 hrs in presence of bortezomib by Western blot analysis; type: cell-based
[20] = molecular target: T1, Protein cereblon/Cyclin-dependent kinase 9; test: Protac activity at CRBN/CDK9 in human MV4-11 cells assessed as reduction in MCL-1 level upto 5 uM measured after 6 hrs by Western blot analysis; type: cell-based
[21] = molecular target: T1, Protein cereblon/Cyclin-dependent kinase 9; test: Protac activity at CRBN/CDK9 isoform 55 in human MOLM-13 cells assessed assessed as protein degradation measured after 6 hrs by Western blot analysis relative to control; type: cell-based
[22] = molecular target: T1, Protein cereblon/Cyclin-dependent kinase 9; test: Protac activity at CRBN/CDK9 isoform 42 in human MOLM-13 cells assessed assessed as protein degradation measured after 6 hrs by Western blot analysis relative to control; type: cell-based
[23] = system: MOLM-13; test: Effect on ikaros expression in human MOLM-13 cells at 0.1 uM measured after 6 hrs by Western blot analysis; type: functional, cell-based
[24] = molecular target: T1, Protein cereblon/Cyclin-dependent kinase 9; test: Protac activity at CRBN/CDK9 in human MV4-11 cells assessed as reduction in c-Myc level upto 5 uM measured after 6 hrs by Western blot analysis; type: cell-based

Compound: O=C(CCCCCCCCCCNC(=O)COc1cccc2c1C(=O)N(C1CCC(=O)NC1=O)C2=O)NCCCCCCCCCCC(=O)N1CCC(NC(=O)c2n[nH]cc2NC(=O)c2c(Cl)cccc2Cl)CC1 (stereo not given)
IC50 [2]: 22.2 µM

Compound: O=C(CCCCCCCCCCCNC(=O)COc1cccc2c1C(=O)N(C1CCC(=O)NC1=O)C2=O)NCCCCCCCCCCCC(=O)N1CCC(NC(=O)c2n[nH]cc2NC(=O)c2c(Cl)cccc2Cl)CC1 (stereo not given)
IC50 [2]: 83.2 µM

Compound: O=C(NC1CCNCC1)c1n[nH]cc1NC(=O)c1c(Cl)cccc1Cl
EC50 [3]: 1.1 µM

Compound: O=C(CCCCNC(=O)COc1cccc2c1C(=O)N(C1CCC(=O)NC1=O)C2=O)NCCCCC(=O)N1CCC(NC(=O)c2n[nH]cc2NC(=O)c2c(Cl)cccc2Cl)CC1 (stereo not given)
Activity [4]: inactive | IC50 [2]: 47.4 µM

Compound: O=C(CCNC(=O)CNc1cccc2c1C(=O)N(C1CCC(=O)NC1=O)C2=O)NCCC(=O)NCCC(=O)N1CCC(NC(=O)c2n[nH]cc2NC(=O)c2c(Cl)cccc2Cl)CC1 (stereo not given)
Activity [5]: inactive

Compound: O=C(COc1cccc2c1C(=O)N(C1CCC(=O)NC1=O)C2=O)NCCCCC(=O)N1CCC(NC(=O)c2n[nH]cc2NC(=O)c2c(Cl)cccc2Cl)CC1 (stereo not given)
IC50 [2]: 43.6 µM

Compound: O=C(CCCCCCCCCCNC(=O)CNc1cccc2c1C(=O)N(C1CCC(=O)NC1=O)C2=O)NCCCCCCCCCCC(=O)N1CCC(NC(=O)c2n[nH]cc2NC(=O)c2c(Cl)cccc2Cl)CC1 (stereo not given)
IC50 [2]: 28.4 µM

Compound: O=C(CNc1cccc2c1C(=O)N(C1CCC(=O)NC1=O)C2=O)NCCCCCCCCCCC(=O)N1CCC(NC(=O)c2n[nH]cc2NC(=O)c2c(Cl)cccc2Cl)CC1 (stereo not given)
Activity [23]: inactive | Activity [1]: Active | DC50 [12]: 0.05 µM | DC50 [18]: 0.03 µM | Activity [24]: Active | Emax [21]: 91.6% | IC50 [2]: 42.1 µM | Emax [22]: 93.1% | EC50 [3]: 0.2 µM

Compound: O=C1CCC(N2C(=O)c3cccc(NCC(=O)N4CCC(NC(=O)c5n[nH]cc5NC(=O)c5c(Cl)cccc5Cl)CC4)c3C2=O)C(=O)N1 (stereo not given)
Activity [1]: inactive | Activity [11]: inactive | IC50 [2]: 774 µM

Compound: O=C(COc1cccc2c1C(=O)N(C1CCC(=O)NC1=O)C2=O)NCCOCCOCCOCC(=O)N1CCC(NC(=O)c2n[nH]cc2NC(=O)c2c(Cl)cccc2Cl)CC1 (stereo not given)
IC50 [2]: 92.2 µM

Compound: O=C(COc1cccc2c1C(=O)N(C1CCC(=O)NC1=O)C2=O)NCCC(=O)N1CCC(NC(=O)c2n[nH]cc2NC(=O)c2c(Cl)cccc2Cl)CC1 (stereo not given)
Activity [1]: inactive | IC50 [2]: 39.7 µM

Compound: O=C(CCCCNC(=O)CNc1cccc2c1C(=O)N(C1CCC(=O)NC1=O)C2=O)NCCCCC(=O)N1CCC(NC(=O)c2n[nH]cc2NC(=O)c2c(Cl)cccc2Cl)CC1 (stereo not given)
Activity [4]: inactive | IC50 [2]: 29.7 µM

Compound: O=C(COc1cccc2c1C(=O)N(C1CCC(=O)NC1=O)C2=O)NCCC(=O)Nc1cccc(C(=O)NCCC(=O)N2CCC(NC(=O)c3n[nH]cc3NC(=O)c3c(Cl)cccc3Cl)CC2)c1 (stereo not given)
Activity [5]: inactive

Now from value to compound, other results behind:

Activity [1]: inactive | IC50 [2]: 6.62 µM
Compound: O=C1CCC(N2C(=O)c3cccc(OCC(=O)N4CCC(NC(=O)c5n[nH]cc5NC(=O)c5c(Cl)cccc5Cl)CC4)c3C2=O)C(=O)N1 (stereo not given)

IC50 [2]: 2.7 µM
Compound: O=C(COc1cccc2c1C(=O)N(C1CCC(=O)NC1=O)C2=O)NCCCCCC(=O)N1CCC(NC(=O)c2n[nH]cc2NC(=O)c2c(Cl)cccc2Cl)CC1 (stereo not given)

IC50 [2]: 2.22 µM
Compound: O=C(CCCCCCCCCNC(=O)COc1cccc2c1C(=O)N(C1CCC(=O)NC1=O)C2=O)NCCCCCCCCCC(=O)N1CCC(NC(=O)c2n[nH]cc2NC(=O)c2c(Cl)cccc2Cl)CC1 (stereo not given)

IC50 [2]: 6.27 µM
Compound: O=C(CCCCCCNC(=O)COc1cccc2c1C(=O)N(C1CCC(=O)NC1=O)C2=O)NCCCCCCC(=O)N1CCC(NC(=O)c2n[nH]cc2NC(=O)c2c(Cl)cccc2Cl)CC1 (stereo not given)

Activity [1]: Active | fold change (FC) [8]: > 2 | Activity [9]: inactive | Activity [10]: inactive | Activity [11]: Active | DC50 [12]: 0.14 µM | Activity [13]: Active | Activity [16]: inactive | Activity [17]: inactive | DC50 [18]: 0.1 µM | Activity [19]: inactive | Activity [20]: Active | Emax [21]: 91.6% | IC50 [2]: 0.04 µM | Emax [22]: 93.1% | EC50 [3]: 0.4 µM
Compound: O=C(COc1cccc2c1C(=O)N(C1CCC(=O)NC1=O)C2=O)NCCCCCCCCCCC(=O)N1CCC(NC(=O)c2n[nH]cc2NC(=O)c2c(Cl)cccc2Cl)CC1 (stereo not given)
Activity [6]: inactive | Activity [7]: inactive | Activity [14]: Active | Activity [15]: Active

Activity [1]: Active | Activity [11]: Active | IC50 [2]: 0.21 µM
Compound: O=C(COc1cccc2c1C(=O)N(C1CCC(=O)NC1=O)C2=O)NCCCCCCCC(=O)N1CCC(NC(=O)c2n[nH]cc2NC(=O)c2c(Cl)cccc2Cl)CC1 (stereo not given)

IC50 [2]: 6.96 µM
Compound: O=C(CCCCCCNC(=O)CNc1cccc2c1C(=O)N(C1CCC(=O)NC1=O)C2=O)NCCCCCCC(=O)N1CCC(NC(=O)c2n[nH]cc2NC(=O)c2c(Cl)cccc2Cl)CC1 (stereo not given)

IC50 [2]: 13 µM
Compound: O=C(CCCCCNC(=O)CNc1cccc2c1C(=O)N(C1CCC(=O)NC1=O)C2=O)NCCCCCC(=O)N1CCC(NC(=O)c2n[nH]cc2NC(=O)c2c(Cl)cccc2Cl)CC1 (stereo not given)

IC50 [2]: 9.43 µM
Compound: O=C(CCCCCCCCCNC(=O)CNc1cccc2c1C(=O)N(C1CCC(=O)NC1=O)C2=O)NCCCCCCCCCC(=O)N1CCC(NC(=O)c2n[nH]cc2NC(=O)c2c(Cl)cccc2Cl)CC1 (stereo not given)

IC50 [2]: 0.82 µM
Compound: O=C(CCCCCCCCNC(=O)COc1cccc2c1C(=O)N(C1CCC(=O)NC1=O)C2=O)NCCCCCCCCC(=O)N1CCC(NC(=O)c2n[nH]cc2NC(=O)c2c(Cl)cccc2Cl)CC1 (stereo not given)

Activity [1]: Active | Activity [11]: Active | IC50 [2]: 0.12 µM
Compound: O=C(COc1cccc2c1C(=O)N(C1CCC(=O)NC1=O)C2=O)NCCCCCCCCCCCC(=O)N1CCC(NC(=O)c2n[nH]cc2NC(=O)c2c(Cl)cccc2Cl)CC1 (stereo not given)

IC50 [2]: 2.39 µM
Compound: O=C(CCCCCCCNC(=O)COc1cccc2c1C(=O)N(C1CCC(=O)NC1=O)C2=O)NCCCCCCCC(=O)N1CCC(NC(=O)c2n[nH]cc2NC(=O)c2c(Cl)cccc2Cl)CC1 (stereo not given)

IC50 [2]: 11.7 µM
Compound: O=C(CCCCCNC(=O)COc1cccc2c1C(=O)N(C1CCC(=O)NC1=O)C2=O)NCCCCCC(=O)N1CCC(NC(=O)c2n[nH]cc2NC(=O)c2c(Cl)cccc2Cl)CC1 (stereo not given)

IC50 [2]: 3.01 µM
Compound: O=C(CCCCCCCNC(=O)CNc1cccc2c1C(=O)N(C1CCC(=O)NC1=O)C2=O)NCCCCCCCC(=O)N1CCC(NC(=O)c2n[nH]cc2NC(=O)c2c(Cl)cccc2Cl)CC1 (stereo not given)

IC50 [2]: 1.4 µM
Compound: O=C(CCCCCCCCNC(=O)CNc1cccc2c1C(=O)N(C1CCC(=O)NC1=O)C2=O)NCCCCCCCCC(=O)N1CCC(NC(=O)c2n[nH]cc2NC(=O)c2c(Cl)cccc2Cl)CC1 (stereo not given)

Source: ChEMBL document CHEMBL5321218, “Bifunctional degraders of cyclin dependent kinase 9 (CDK9): Probing the relationship between linker length, properties, and selective protein degradation” (Eur J Med Chem, 2023)
